Experimental data published in US9440910B2, “Reference markers for fesoterodine fumarate” (ALEMBIC PHARMACEUTICALS LIMITED, priority 2012, dated 2016).
Counter-ions that a name gives are not always drawn.

Tests used:
Type in all cases: physicochemical
[1] = Stability Study of Fesoterodine Fumarate at 25° C.+/−2° C. 60%+/−5% RH
Procedure: (§1) Present inventors carried out the stability study of Fesoterodine Fumarate at different conditions and summarized the table shown below which easily indicate how the impurity at 1.82 RRT is increasingly generated.
Stability Study of Fesoterodine Fumarate at 25° C.+/−2° C. 60%+/−5% RH
(§2) The LC system, used for method development and forced degradation studies and method validation was Waters-Alliance (manufactured by Waters India Ltd) LC system with a photo diode detector. The out put signal was monitored and processed using Empower software system (designed by Waters India) on IBM computer (Digital Equipment Co). • The chromatographic column used was a Waters Aquity BEH C18 100 mm×2.1 mm column with 1.7 μm particles. The mobile phase consists buffer (1.4 g of Disodium hydrogen phosphate in 1000 mL of water pH-8.0 with ortho phosphoric acid), and solvent is acetonitrile. The flow rate of the mobile phase was kept at 0.3 ml/min. beginning with the gradient ratio of mobile phase buffer and solvent 50:50 (v/v), system was continued at the same ratio for 2 minutes. The ratio was changed linearly 30:70(v/v) within 7 minutes and again system was continued at the same ratio for 9 minutes. After 1.5 minutes the initial gradient of 50:50 is for 2.5 minutes to be conditioned far every analysis. The column temperature was maintained at 45° C. and the wavelength was monitored at a wavelength of 220 nm. The injection volume was 3 μL for related substances determination. Acetonitrile was used as diluent during the standard, and test samples preparation.

[2] = Stability Study of Fesoterodine Fumarate at 30° C.+/−2° C. 65%+/−5% RH
Procedure: as §1
Stability Study of Fesoterodine Fumarate at 30° C.+/−2° C. 65%+/−5% RH
as §2

[3] = Stability Study of Fesoterodine Fumarate at 2-8° C.
Procedure: as §1
Stability Study of Fesoterodine Fumarate at 2-8° C.
as §2

[4] = Stability Study of Fesoterodine Fumarate at 40° C.+/−2° C. 75%+/−5% RH
Procedure: as §1
Stability Study of Fesoterodine Fumarate at 40° C.+/−2° C. 75%+/−5% RH
as §2

[5] = Analysis of the stability samples of fesoterodine fumarate; details: after 2-6 months stability at 25° C. and above temperature; not observed during initial analysis
Procedure: During analysis of the stability samples of fesoterodine fumarate, after 2-6 months stability at 25° C. and above temperature, the unknown impurity (1.82 RRT) detected which was not observed during initial analysis.
as §2, with “The injection volume was 3 μL for related substances determination. Acetonitrile was used as diluent during the standard, and test samples preparation.” left out

What does the source list for `CC(C)C(=O)Oc1ccc(CO)cc1[C@H](CCN(C(C)C)C(C)C)c1ccccc1` [Fesoterodine Fumarate, [2-[(1R)-3-(Di(propan-2-yl)amino)-1-phenylpropyl]-4-(hydroxymethyl)phenyl]2-methylpropanoate]?
0.29 RRT (Fumaric acid ester) ([1]; 1 month): 0.05%; Dihydroxy impurity (active metabolite) ([1]; 1 month): 0.15%; Purity of Fesoterodine fumarate ([1]; 1 month): 99.52%; 0.29 RRT (Fumaric acid ester) ([1]; 2 month): 0.07%; Dihydroxy impurity (active metabolite) ([1]; 2 month): 0.27%; Purity of Fesoterodine fumarate ([1]; 2 month): 99.38%; 0.29 RRT (Fumaric acid ester) ([1]; 3 month): 0.08%; 1.82 RRT ([1]; 3 month): 0.01%; Dihydroxy impurity (active metabolite) ([1]; 3 month): 0.40%; Purity of Fesoterodine fumarate ([1]; 3 month): 99.25%; 0.29 RRT (Fumaric acid ester) ([1]; 4 month): 0.07%; 1.82 RRT ([1]; 4 month): 0.02%; Dihydroxy impurity (active metabolite) ([1]; 4 month): 0.53%; Purity of Fesoterodine fumarate ([1]; 4 month): 99.11%; 0.29 RRT (Fumaric acid ester) ([1]; 6 month): 0.12%; 1.82 RRT ([1]; 6 month): 0.11%; Dihydroxy impurity (active metabolite) ([1]; 6 month): 1.02; Purity of Fesoterodine fumarate ([1]; 6 month): 98.42%; 0.29 RRT (Fumaric acid ester) ([1]; Initial): 0.03%; Dihydroxy impurity (active metabolite) ([1]; Initial): 0.07%; Purity of Fesoterodine fumarate ([1]; Initial): 99.69%; 0.29 RRT (Fumaric acid ester) ([2]; 1 month): 0.06%; Dihydroxy impurity (active metabolite) ([2]; 1 month): 0.23%; Purity of Fesoterodine fumarate ([2]; 1 month): 99.43%; 0.29 RRT (Fumaric acid ester) ([2]; 2 month): 0.09%; 1.82 RRT ([2]; 2 month): 0.02%; Dihydroxy impurity (active metabolite) ([2]; 2 month): 0.45%; Purity of Fesoterodine fumarate ([2]; 2 month): 99.15%; 0.29 RRT (Fumaric acid ester) ([2]; 3 month): 0.10%; 1.82 RRT ([2]; 3 month): 0.07%; Dihydroxy impurity (active metabolite) ([2]; 3 month): 0.71%; Purity of Fesoterodine fumarate ([2]; 3 month): 98.84%; 0.29 RRT (Fumaric acid ester) ([2]; 4 month): 0.09%; 1.82 RRT ([2]; 4 month): 0.11%; Dihydroxy impurity (active metabolite) ([2]; 4 month): 0.76%; Purity of Fesoterodine fumarate ([2]; 4 month): 98.74%; 0.29 RRT (Fumaric acid ester) ([2]; Initial): 0.03%; Dihydroxy impurity (active metabolite) ([2]; Initial): 0.07%; Purity of Fesoterodine fumarate ([2]; Initial): 99.69%; 0.29 RRT (Fumaric acid ester) ([3]; 3 month): 0.04%; Dihydroxy impurity (active metabolite) ([3]; 3 month): 0.11%; Purity of Fesoterodine fumarate ([3]; 3 month): 99.61%; 0.29 RRT (Fumaric acid ester) ([3]; 6 month): 0.05%; Dihydroxy impurity (active metabolite) ([3]; 6 month): 0.15%; Purity of Fesoterodine fumarate ([3]; 6 month): 99.52%; 0.29 RRT (Fumaric acid ester) ([3]; Initial): 0.03%; Dihydroxy impurity (active metabolite) ([3]; Initial): 0.07%; Purity of Fesoterodine fumarate ([3]; Initial): 99.69%; 0.29 RRT 0.29 RRT (Fumaric acid ester) ([4]; 1 month): 0.10%; 1.82 RRT ([4]; 1 month): 0.06%; Dihydroxy impurity (active metabolite) ([4]; 1 month): 0.64%; Purity of Fesoterodine fumarate ([4]; 1 month): 98.92%; 0.29 RRT 0.29 RRT (Fumaric acid ester) ([4]; Initial): 0.03%; Dihydroxy impurity (active metabolite) ([4]; Initial): 0.07%; Purity of Fesoterodine fumarate ([4]; Initial): 99.69%; unknown impurity (1.82 RRT) [5]: detected
